12 molecules from patent US20110257171A1, “NOVEL IMIDAZO[1,2-A]PYRIDINE DERIVATIVES, METHOD FOR THE PREPARATION THEREOF, USE THEREOF AS MEDICAMENTS, PHARMACEUTICAL COMPOSITIONS AND NOVEL USE IN PARTICULAR AS MET INHIBITORS” (SANOFI-AVENTIS, priority 2008, published 2011) can be followed below.

Counter-ions that a name gives are not always drawn.

Data set [1] deals with T1, MET (Homo sapiens, UniProt P08581). Put plainly: Test B: inhibition of the autophosphorylation of MET, ELISA technique (pppY1230, 1234, 1235) in MKN45 cells. Format: cell-based. The arrangement: endogenous in cells; host or cells: MKN45 cells. The note with it: 1 h treatment, phosphoMET ELISA. As to the method:
B) Test B: Inhibition of the Autophosphorylation of Met; ELISA Technique (pppY1230, 1234, 1235) a) Cell lysates: MKN45 cells are seeded into 96-well plates (cell coat BD polylysine) at 20 000 cells/well in 200 μl of RPMI medium+10% FCS+1% L-glutamine. They are left to adhere for 24 hours in an incubator.
The cells are treated the day after seeding with the products at 6 concentrations, in duplicate, for 1 h. At least 3 control wells are treated with the same final amount of DMSO.
Product dilution: Stock at 10 mM in pure DMSO—range from 10 mM to 30 μM with an increment of 3 in pure DMSO—intermediate dilutions to 1/50 in culture medium and then removal of 10 μl added directly to the cells (200 μl): final range of 10 000 to 30 nM.
At the end of the incubation, the supernatant is carefully removed and rinsing is performed with 200 μl of PBS. Next, 100 μl of lysis buffer are placed directly in the wells on ice and incubated at 4° C. for 30 minutes. Lysis buffer: 10 mM Tris HCl, pH 7.4, 100 mM NaCl, 1 mM EDTA, 1 mM EGTA, 1% Triton X-100, 10% glycerol, 0.1% SDS, 0.5% deoxycholate, 20 mM NaF, 2 mM Na3VO4, 1 mM PMSF and cocktail of antiproteases.
The 100 μl of lysates are transferred into a V-bottomed polypropylene plate and the ELISA is performed immediately, or the plate is frozen at −80° C.
70 μl of kit dilution buffer+30 μL of cell lysate, or 30 μl of lysis buffer for the blanks, are added to each well of the kit plate. Incubation is carried out for 2 h with gentle agitation at ambient temperature.
The wells are rinsed 4 times with 400 μl of kit washing buffer. Incubation is carried out with 100 μl of anti-phospho MET antibody for 1 hour at ambient temperature.
The wells are rinsed 4 times with 400 μl of kit washing buffer. Incubation is carried out with 100 μl of anti-rabbit HRP antibody for 30 minutes at ambient temperature (except for the wells of chromogen alone).
The wells are rinsed 4 times with 400 μl of kit washing buffer. 100 μL of chromogen are introduced and incubation is carried out for 30 minutes in the dark at ambient temperature.
The reaction is stopped with 100 μl of stop solution. The plate is read without delay at […], 0.1 second on a Wallac Victor plate reader.
Target sequence in this assay (P08581 25-1390): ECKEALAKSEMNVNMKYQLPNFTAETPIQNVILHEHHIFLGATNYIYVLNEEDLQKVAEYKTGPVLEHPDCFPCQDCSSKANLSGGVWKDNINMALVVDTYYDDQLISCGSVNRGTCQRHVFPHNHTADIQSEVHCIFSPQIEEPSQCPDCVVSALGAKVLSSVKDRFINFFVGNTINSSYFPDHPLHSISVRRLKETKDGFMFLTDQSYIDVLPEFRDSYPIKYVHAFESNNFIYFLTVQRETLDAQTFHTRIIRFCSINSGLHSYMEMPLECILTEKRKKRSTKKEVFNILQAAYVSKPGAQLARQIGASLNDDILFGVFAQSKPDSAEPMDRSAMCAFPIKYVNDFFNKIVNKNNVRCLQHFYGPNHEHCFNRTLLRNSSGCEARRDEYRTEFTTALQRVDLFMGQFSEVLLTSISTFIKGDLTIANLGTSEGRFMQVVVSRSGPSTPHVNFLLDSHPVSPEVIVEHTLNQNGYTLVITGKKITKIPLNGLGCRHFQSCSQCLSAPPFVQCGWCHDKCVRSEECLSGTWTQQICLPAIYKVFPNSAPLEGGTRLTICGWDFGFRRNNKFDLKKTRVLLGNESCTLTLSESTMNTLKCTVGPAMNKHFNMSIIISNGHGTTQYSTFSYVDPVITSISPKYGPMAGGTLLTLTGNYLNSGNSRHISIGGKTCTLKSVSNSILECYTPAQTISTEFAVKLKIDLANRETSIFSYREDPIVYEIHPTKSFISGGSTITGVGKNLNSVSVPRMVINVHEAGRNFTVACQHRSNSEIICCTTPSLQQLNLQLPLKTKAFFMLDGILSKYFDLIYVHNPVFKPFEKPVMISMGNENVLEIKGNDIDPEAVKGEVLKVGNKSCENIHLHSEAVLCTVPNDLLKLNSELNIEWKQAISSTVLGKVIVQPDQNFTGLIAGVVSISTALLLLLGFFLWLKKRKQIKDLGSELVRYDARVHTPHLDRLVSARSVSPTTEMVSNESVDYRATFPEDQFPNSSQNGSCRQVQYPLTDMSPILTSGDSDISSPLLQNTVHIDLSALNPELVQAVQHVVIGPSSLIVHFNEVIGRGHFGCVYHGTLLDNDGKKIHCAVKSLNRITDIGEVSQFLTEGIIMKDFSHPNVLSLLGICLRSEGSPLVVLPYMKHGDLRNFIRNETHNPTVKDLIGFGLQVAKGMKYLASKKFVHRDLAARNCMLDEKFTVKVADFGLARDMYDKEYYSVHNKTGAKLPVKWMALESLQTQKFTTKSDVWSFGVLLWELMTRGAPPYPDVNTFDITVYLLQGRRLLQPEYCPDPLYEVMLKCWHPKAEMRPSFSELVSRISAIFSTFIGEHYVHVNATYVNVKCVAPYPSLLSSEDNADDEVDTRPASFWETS
A general note: In an ELISA, binding on a coated surface is turned into a signal by an enzyme label.

Data set [2] relates to HCT116 cells and MKN45 cells. Put plainly: Test C: measurement of cell proliferation by 14C-thymidine pulse. Format: cell-based. The note with it: 14C-thymidine incorporation, 96 h of treatment; cell line not given. How it is done: The cells are seeded into Cytostar 96-well plates in 180 μl for 4 hours at 37° C. and 5% CO2: HCT116 cells in a proportion of 2500 cells per well in DMEM medium+10% foetal calf serum+1% L-glutamine, and MKN45 cells in a proportion of 7500 cells per well in RPMI medium+10% foetal calf serum+1% L-glutamine. After these 4 hours of incubation, the products are added in 10 μl as a […] concentrated solution according to the dilution method mentioned for the ELISA. The products are tested at 10 concentrations in duplicate from 10 000 nM to 0.3 nM with an increment of 3.
After treatment for 72 h, 10 μl of ^14C-thymidine at 10 μCi/ml are added so as to obtain 0.1 μCi per well. The ^14C-thymidine incorporation is measured on a Micro-Beta machine (Perkin-Elmer) after 24 hours of pulse and 96 h of treatment.
All the steps of the assay are automated on BIOMEK 2000 or TECAN stations.

Data set [3] concerns the target T1, MET. Nature of the data set: Test A: HTRF MET assay in 96-well format. Format: biochemical. The note with it: MET 5 nM, 10 μM ATP. Details: The His-Tev-MET (956-1390) recombinant DNA in pFastBac (Invitrogen) is transfected into insect cells; His (N, cleaved yes); Tev cleavage site (N); made in house; host or cells: SF21 insect cells (baculovirus, pFastBac). How it is done: The His-Tev-MET (956-1390) recombinant DNA in pFastBac (Invitrogen) is transfected into insect cells and, after several viral amplification steps, the final baculovirus stock is tested for the expression of the protein of interest.
After infection for 72 h at 27° C. with the recombinant virus, SF21 cell cultures are harvested by centrifugation and the cell pellets are stored at −80° C.
The cell pellets are resuspended in the lysis buffer (buffer A [50 mM HEPES, pH 7.5, 250 mM NaCl, 10% glycerol, 1 mM TECP]; +cocktail of protease inhibitors, Roche Diagnostics, without EDTA, ref 1873580), stirred at 4° C. until the mixture is homogeneous, and then lysed mechanically using a “Dounce” type apparatus.
After centrifugation, the lysis supernatant is incubated for 2 h at 4° C. with nickel chelate resin (His-Trap 6 Fast Flow™, GE HealthCare). After washing with 20 volumes of buffer A, the suspension is packed into a column, and the proteins are eluted with a gradient of buffer B (buffer A+290 mM imidazole).
The fractions containing the protein of interest, for the purpose of electrophoretic analysis (SDS PAGE), are combined, concentrated by ultrafiltration (10 kDa cut-off) and injected onto an exclusion chromatography column (Superdex® 200, GE HealthCare) equilibrated in buffer A.
After enzymatic cleavage of the histidine tag, the protein is reinjected onto a new IMAC nickel chelate chromatography column (His-Trap 6 Fast Flow™ GE HealthCare) equilibrated in buffer A. The fractions eluted with a gradient of buffer B and containing the protein of interest after electrophoresis (SDS PAGE) are finally combined and stored at −80° C.
For the production of autophosphorylated protein, the previous fractions are incubated for 1 h at ambient temperature after the addition of 2 mM ATP, 2 mM MgCl2 and 4 mM Na3VO4. After the reaction has been stopped with 5 mM of EDTA, the reaction mixture is injected onto a HiPrep desalifying column (GE HealthCare) pre-equilibrated in buffer A+4 mM Na3VO4, and the fractions containing the protein of interest (SDS PAGE analysis) are combined and stored at −80° C. The degree of phosphorylation is verified by mass spectrometry (LC-MS) and by peptide mapping.
MET at a final concentration of 5 nM is incubated in a final volume of 50 μl of enzymatic reaction in the presence of the test molecule (for a final concentration range of from 0.17 nM to 10 μM, 3% DMSO final concentration) in 10 mM MOPS buffer, pH 7.4, 1 mM DTT, 0.01% Tween 20. The reaction is initiated with the substrate solution to obtain final concentrations of 1 μg/ml poly-(GAT), 10 μM ATP and 5 mM MgCl2. After incubation for 10 min at ambient temperature, the reaction is stopped with a 30 μl mix so as to obtain a final solution of 50 mM Hepes, pH 7.5, 500 mM potassium fluoride, 0.1% BSA and 133 mM EDTA in the presence of 80 ng of streptavidin 61 SAXLB Cis-Bio Int. and 18 ng of anti-phosphotyrosine Mab PT66-Europium Cryptate per well. After incubation for 2 hours at ambient temperature, the reading is taken at 2 wavelengths, 620 nm and 665 nm, on a reader for the TRACE/HTRF technique, and the % inhibition is calculated from the 665/620 ratios.
Target sequence in this assay (P08581 956-1390): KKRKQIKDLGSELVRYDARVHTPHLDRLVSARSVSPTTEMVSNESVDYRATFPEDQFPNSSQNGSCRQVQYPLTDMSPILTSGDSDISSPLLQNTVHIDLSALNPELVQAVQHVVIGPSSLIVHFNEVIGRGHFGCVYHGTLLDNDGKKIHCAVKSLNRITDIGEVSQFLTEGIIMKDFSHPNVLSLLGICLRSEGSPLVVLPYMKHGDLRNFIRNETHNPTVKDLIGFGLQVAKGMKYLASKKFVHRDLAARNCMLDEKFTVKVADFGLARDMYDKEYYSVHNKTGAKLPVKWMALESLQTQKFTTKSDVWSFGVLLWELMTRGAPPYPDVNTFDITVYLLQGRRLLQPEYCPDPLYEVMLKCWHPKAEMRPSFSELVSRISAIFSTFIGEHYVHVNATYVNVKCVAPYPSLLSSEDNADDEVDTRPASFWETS

Broadly, the melting point is the temperature, or range, at which the solid turns liquid. `O=C(Nc1nc2ccc(Sc3cnc4ccc(-c5cnn(C6CCNCC6)c5)cn34)cc2s1)C1CC1` (as salt: hydrochloride) [Example 12, N-[6-({6-[1-(piperidin-4-yl)1H-pyrazol-4-yl]imidazo[1,2-a]pyridin-3-yl}sulphanyl)-1,3-benzothiazol-2-yl]cyclopropanecarboxamide] had a melting point of 230 °C.
The IC50 is the concentration that inhibits the measured activity by half. Turning to `O=C(Nc1nc2ccc(Sc3cnc4ccccn34)cc2s1)C1CC1` [Example 1, N-{[6-(imidazo[1,2-a]pyridin-3-yl)sulphanyl]-1,3-benzothiazol-2-yl}cyclopropanecarboxamide], the IC50 is below 100 nM in data set [1], below 1000 nM in data set [2] and below 100 nM in data set [3].
Molecule `Nc1nc2ccc(Sc3cnc4ccc(-c5ccc(F)cc5)cn34)cc2s1` [Example 2, 6-{[6-(4-fluorophenyl)imidazo[1,2-a]pyridin-3-yl]sulphanyl}-1,3-benzothiazol-2-amine] yielded a melting point of 258 °C. Moreover, the IC50 in data set [1] is above 500 nM. The molecule further displayed an IC50 in data set [2] below 1000 nM. The IC50 in data set [3] is below 100 nM.
The matching figures for `O=C(Nc1nc2ccc(Sc3cnc4ccc(-c5ccc(F)cc5)cn34)cc2s1)C1CC1` [Example 3, N-(6-{[6-(4-fluorophenyl)imidazo[1,2-a]pyridin-3-yl]sulphanyl}-1,3-benzothiazol-2-yl)cyclopropanecarboxamide]: 265 °C, below 100 nM, below 1000 nM and below 100 nM.
As to `CC(=O)Nc1nc2ccc(Sc3cnc4ccc(-c5ccc(F)cc5)cn34)cc2s1` [Example 4, N-(6-{[6-(4-fluorophenyl)imidazo[1,2-a]pyridin-3-yl]sulphanyl}-1,3-benzothiazol-2-yl)acetamide], the values for the IC50 in data set [1], in data set [2] and in data set [3] were below 100 nM, below 1000 nM and below 100 nM, respectively.
Consider `COCCNC(=O)Nc1nc2ccc(Sc3cnc4ccc(-c5ccc(F)cc5)cn34)cc2s1` [Example 5, 1-(6-{[6-(4-fluorophenyl)imidazo[1,2-a]pyridin-3-yl]sulphanyl}-1,3-benzothiazol-2-yl)-3-(2-methoxyethyl)urea], for which the melting point was above 260 °C. The same molecule came in with an IC50 in data set [1] below 100 nM. In data set [2], this molecule displayed an IC50 below 1000 nM. In data set [3], the IC50 was below 100 nM.
Take `O=C(NCCN1CCOCC1)Nc1nc2ccc(Sc3cnc4ccc(-c5ccc(F)cc5)cn34)cc2s1` [Example 6, 1-(6-{[6-(4-fluorophenyl)imidazo[1,2-a]pyridin-3-yl]sulphanyl}-1,3-benzothiazol-2-yl)-3-[2-(morpholin-4-yl)ethyl]urea]: the IC50 in data set [1] was below 100 nM; in data set [2], below 1000 nM; in data set [3] it was below 100 nM.
Consider `Cn1cc(-c2ccc3ncc(Sc4ccc5nc(NC(=O)C6CC6)sc5c4)n3c2)cn1` [Example 7, N-(6-{[6-(1-methyl-1H-pyrazol-4-yl)imidazo[1,2-a]pyridin-3-yl]sulphanyl}-1,3-benzothiazol-2-yl)cyclopropanecarboxamide], for which the IC50 is below 100 nM in data set [1], below 1000 nM in data set [2] and below 100 nM in data set [3].
In the case of `O=C(Nc1nc2ccc(Sc3cnc4ccc(-c5cn[nH]c5)cn34)cc2s1)C1CC1` [Example 8, N-(6-{[6-(1H-pyrazol-4-yl)imidazo[1,2-a]pyridin-3-yl]sulphanyl}-1,3-benzothiazol-2-yl)cyclopropanecarboxamide], the values for the IC50 in data set [1], in data set [2] and in data set [3] were below 100 nM, below 1000 nM and below 100 nM, respectively.
The molecule `O=C(Nc1nc2ccc(Sc3cnc4ccc(-c5cccc(F)c5)cn34)cc2s1)C1CC1` [Example 9, N-(6-{[6-(3-fluorophenyl)imidazo[1,2-a]pyridin-3-yl]sulphanyl}-1,3-benzothiazol-2-yl)cyclopropanecarboxamide] returned a melting point above 260 °C. The molecule also yielded an IC50 in data set [1] below 100 nM. In data set [2], this molecule had an IC50 below 1000 nM. Moreover, the IC50 in data set [3] was below 100 nM.
For the molecule `Cc1ccc(-c2ccc3ncc(Sc4ccc5nc(NC(=O)C6CC6)sc5c4)n3c2)cc1F` [Example 10, N-(6-{[6-((3-fluoro-4-methyl)phenyl)imidazo[1,2-a]pyridin-3-yl]sulphanyl}-1,3-benzothiazol-2-yl)cyclopropanecarboxamide], the melting point is above 260 °C. This molecule also had an IC50 in data set [1] below 100 nM. Further, in data set [2], the IC50 is below 1000 nM. In addition, the IC50 in data set [3] was below 100 nM.
Consider `O=C(Nc1nc2ccc(Sc3cnc4ccc(-c5cnn(C6CCNCC6)c5)cn34)cc2s1)C1CC1` [Example 12, N-[6-({6-[1-(piperidin-4-yl)1H-pyrazol-4-yl]imidazo[1,2-a]pyridin-3-yl}sulphanyl)-1,3-benzothiazol-2-yl]cyclopropanecarboxamide], for which the IC50 in data set [1] was below 100 nM; in data set [2], below 1000 nM; in data set [3] it was below 100 nM.
